Results reported in patent US11059780B2, “Substituted pyrrolidine compound and use thereof” (Takeda Pharmaceutical Company Limited, priority 2017, dated 2021).

Biological target: T1, human orexin type 2 receptor (hOX2R) (Homo sapiens, UniProt O43614)
T1 construct: expressed in transfected cells
T1 sequence (O43614 1-444): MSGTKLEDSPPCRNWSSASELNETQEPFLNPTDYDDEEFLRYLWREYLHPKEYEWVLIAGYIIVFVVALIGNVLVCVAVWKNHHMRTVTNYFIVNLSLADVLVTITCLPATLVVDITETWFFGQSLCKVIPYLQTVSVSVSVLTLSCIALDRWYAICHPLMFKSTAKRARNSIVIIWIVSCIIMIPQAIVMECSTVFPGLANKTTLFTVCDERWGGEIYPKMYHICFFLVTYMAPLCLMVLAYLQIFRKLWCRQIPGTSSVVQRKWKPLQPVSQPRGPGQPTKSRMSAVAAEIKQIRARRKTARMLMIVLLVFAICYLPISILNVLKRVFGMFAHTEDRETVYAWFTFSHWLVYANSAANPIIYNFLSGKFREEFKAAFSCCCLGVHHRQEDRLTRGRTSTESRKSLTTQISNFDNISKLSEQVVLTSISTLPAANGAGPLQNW
Assay: Measurement of orexin type 2 receptor agonist activity (Fluo-4 calcium fluorescence, CHO cells forcibly expressing human OX2 receptor)
Assay type: cell-based
Conditions: test compound 3 μM, DMSO = 0%, orexin A (human) 10 nM = 100%
Summary of the method: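 CHO-dhfr cells stably expressing human OX2 receptor, loaded with Fluo-4 AM in HBSS/HEPES/BSA with probenecid, then given test compound at 3 μM. Calcium fluorescence recorded for about 2 min 40 s by FDSS; activity normalized to DMSO (0%) and 10 nM human orexin A (100%).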

| Structure (SMILES) | OX2R agonist activity (3 μM, %) [%] |
| --- | --- |
| CO[C@@H]1CN(C(=O)c2cc(C)ccc2C)C[C@H]1Oc1cccc(CS(=O)(=O)N2CCC23CN(C(=O)OC(C)(C)C)C3)c1 (relative stereo) [Example 32, tert-butyl trans-1-((3-((1-(2,5-dimethylbenzoyl)-4-methoxypyrrolidin-3-yl)oxy)benzyl)sulfonyl)-1,6-diazaspiro[3.3]heptane-6-carboxylate] | 109 |
| CO[C@@H]1CN(C(=O)c2cc(C)ccc2C)C[C@H]1Oc1cccc(CS(=O)(=O)N2CCOCC2CO)c1 (relative stereo) [Example 11, trans-(2,5-dimethylphenyl)(3-(3-(((3-(hydroxymethyl)morpholin-4-yl)sulfonyl)methyl)phenoxy)-4-methoxypyrrolidin-1-yl)methanone] | 62 |
| COC1CN(C(=O)c2cc(C)ccc2C)CC1Oc1cccc(NS(=O)(=O)N2CC[C@H]3CCN(C)C[C@@H]32)c1 (relative stereo) [Example 76, trans-N-(3-((1-(2,5-dimethylbenzoyl)-4-methoxypyrrolidin-3-yl)oxy)phenyl)-6-methyloctahydro-1H-pyrrolo[2,3-c]pyridine-1-sulfonamide] | 82 |
| CO[C@@H]1CN(C(=O)c2cc(C)ccc2C)C[C@H]1Oc1cccc(NS(=O)(=O)N2CCCC2c2ccncc2)c1 (relative stereo) [Example 52, trans-N-(3-((1-(2,5-dimethylbenzoyl)-4-methoxypyrrolidin-3-yl)oxy)phenyl)-2-(pyridin-4-yl)pyrrolidine-1-sulfonamide] | 83 |
| COC1CN(C(=O)c2cc(C)ccc2C)CC1Oc1cccc(NS(=O)(=O)N2C[C@@H]3C[C@H]3C2)c1 (relative stereo) [Example 73, trans-N-(3-((1-(2,5-dimethylbenzoyl)-4-methoxypyrrolidin-3-yl)oxy)phenyl)-3-azabicyclo[3.1.0]hexane-3-sulfonamide] | 91 |
| CO[C@@H]1CN(C(=O)c2cc(C)ccc2C)C[C@H]1Oc1cccc(NS(=O)(=O)N(C)C2CCOCC2)c1 (relative stereo) [Example 47, trans-N′-(3-((1-(2,5-dimethylbenzoyl)-4-methoxypyrrolidin-3-yl)oxy)phenyl)-N-methyl-N-(tetrahydro-2H-pyran-4-yl)sulfuric diamide] | 106 |

Further lines, results first:

| OX2R agonist activity (3 μM, %) [%] | Structure (SMILES) |
| --- | --- |
| 83 | COc1ccccc1OC(=O)N1C[C@@H](OC)[C@H](Oc2cccc(NS(=O)(=O)N3CC4CC4C3)c2)C1 (stereo partly drawn) [Example 157, 2-methoxyphenyl(3R,4R)-3-(3-((3-azabicyclo[3.1.0]hex-3-ylsulfonyl)amino)phenoxy)-4-methoxypyrrolidine-1-carboxylate] |
| 100 | COc1cccc(C)c1C(=O)N1C[C@@H](OC)[C@H](Oc2cccc(CS(=O)(=O)N3CCCC3c3ccccn3)c2)C1 (relative stereo) [Example 119, trans-(2-methoxy-6-methylphenyl)(3-methoxy-4-(3-(((2-(pyridin-2-yl)pyrrolidin-1-yl)sulfonyl)methyl)phenoxy)pyrrolidin-1-yl)methanone] |
| 67 | CO[C@@H]1CN(C(=O)c2cc(C)ccc2C)C[C@H]1Oc1cccc(C(F)S(=O)(=O)N2CCCC2c2ccccn2)c1 (relative stereo) [Example 110, trans-(2,5-dimethylphenyl)(3-(3-(fluoro((2-(pyridin-2-yl)pyrrolidin-1-yl)sulfonyl)methyl)phenoxy)-4-methoxypyrrolidin-1-yl)methanone] |
| 92 | CO[C@@H]1CN(C(=O)c2cc(C)ccc2C)C[C@H]1Oc1cccc(C(C)S(=O)(=O)N(C)C2CCOCC2)c1 (relative stereo) [Example 143, trans-1-(3-((1-(2,5-dimethylbenzoyl)-4-methoxypyrrolidin-3-yl)oxy)phenyl)-N-methyl-N-(tetrahydro-2H-pyran-4-yl)ethanesulfonamide] |
| 84 | CO[C@@H]1CN(C(=O)c2cc(C)ccc2C)C[C@H]1Oc1cccc(NS(=O)(=O)N2CC3CC3C2)c1 (stereo partly drawn) [Example 109, N-(3-(((3R,4R)-1-(2,5-dimethylbenzoyl)-4-methoxypyrrolidin-3-yl)oxy)phenyl)-3-azabicyclo[3.1.0]hexane-3-sulfonamide] |
| 92 | CO[C@@H]1CN(C(=O)c2cc(C)ccc2C)C[C@H]1Oc1cccc(CS(=O)(=O)N(C)C2CCOC(C)(C)C2)c1 (relative stereo) [Example 156, trans-1-(3-((1-(2,5-dimethylbenzoyl)-4-methoxypyrrolidin-3-yl)oxy)phenyl)-N-(2,2-dimethyltetrahydro-2H-pyran-4-yl)-N-methylmethanesulfonamide] |
| 88 | CO[C@@H]1CN(C(=O)c2cc(C)ccc2C)C[C@H]1Oc1cccc(C(C)S(=O)(=O)N2CCC[C@H]2c2ccccn2)c1 (stereo partly drawn) [Example 137, (2,5-dimethylphenyl)((3R,4R)-3-methoxy-4-(3-(1-(((2S)-2-(pyridin-2-yl)pyrrolidin-1-yl)sulfonyl)ethyl)phenoxy)pyrrolidin-1-yl)methanone] |
| 114 | COc1cccc(C)c1C(=O)N1C[C@@H](OC)[C@H](Oc2cccc(NS(=O)(=O)N3CC4CC4C3)c2)C1 (stereo partly drawn) [Example 121, N-(3-(((3R,4R)-4-methoxy-1-(2-methoxy-6-methylbenzoyl)pyrrolidin-3-yl)oxy)phenyl)-3-azabicyclo[3.1.0]hexane-3-sulfonamide] |
| 96 | COc1ccc(C)c(C)c1C(=O)N1C[C@@H](OC)[C@H](Oc2cccc(CS(=O)(=O)N(C)C3CCOCC3)c2)C1 (relative stereo) [Example 162, trans-1-(3-((4-methoxy-1-(6-methoxy-2,3-dimethylbenzoyl)pyrrolidin-3-yl)oxy)phenyl)-N-methyl-N-(tetrahydro-2H-pyran-4-yl)methanesulfonamide] |
